Reference: US7476508B2, “Method of screening agent for improving memory and learning ability” (Astellas Pharma Inc., priority 2003, dated 2009)

Columns and labels:
[1] = system: control cell not expressing the polypeptide of SEQ ID NO: 2; experiment: Whole-cell voltage-clamp in control cell transfected with no expression vector; type: cell-based, human; details: same conditions as the transfected cell
Protocol: Each cell obtained in Example 3 was voltage-clamped by a whole-cell voltage-clamp method, and a whole-cell current generated when PS was applied was measured. A solution containing 149 mmol/L NaCl, 5 mmol/L KCl, 2 mmol/L CaCl2, 0.8 mmol/L MgCl2, and 10 mmol/L HEPES-Na (pH=7.4) was used as an extracellular solution, and a solution containing 147 mmol/L CsCl, 4.5 mmol/L EGTA, and 9 mmol/L HEPES-Cs(pH=7.2) was used as an intracellular solution.
(§1) When PS (100 μmol/L) was extracellularly applied to the cell transfected with plasmid pcDNA3.1-MLSN2 at a holding potential of −40 mV, an inward current (−5.8±0.9, n=10) was measured. After washing the cell, PS was applid thereto at a holding potential of +40 mV, a large outward current (108.9±19.3, n=10) was measured. A current-voltage relationship was measured using a voltage ramp during the response, an outward rectifier was observed.

aged rats = details: non-patent reference 5; cited from earlier work
hippocampal slices = details: non-patent references 3, 6 and 7; cited from earlier work
[2] = target: T1, polypeptide consisting of the amino acid sequence of SEQ ID NO: 2 (Homo sapiens, UniProt Q9HCF6, R1695Q); experiment: Calcium influx with calcium-sensitive fluorescent reagent (Fluo3-AM, FLIPR) in HEK293 transformants; type: cell-based; details: for EC50: method of Example 6, read-out: EC50 of activation (calcium influx)
T1 construct: expressed in transfected cells
T1 sequence (Q9HCF6 154-1707 isoform Q9HCF6-2 R1670Q): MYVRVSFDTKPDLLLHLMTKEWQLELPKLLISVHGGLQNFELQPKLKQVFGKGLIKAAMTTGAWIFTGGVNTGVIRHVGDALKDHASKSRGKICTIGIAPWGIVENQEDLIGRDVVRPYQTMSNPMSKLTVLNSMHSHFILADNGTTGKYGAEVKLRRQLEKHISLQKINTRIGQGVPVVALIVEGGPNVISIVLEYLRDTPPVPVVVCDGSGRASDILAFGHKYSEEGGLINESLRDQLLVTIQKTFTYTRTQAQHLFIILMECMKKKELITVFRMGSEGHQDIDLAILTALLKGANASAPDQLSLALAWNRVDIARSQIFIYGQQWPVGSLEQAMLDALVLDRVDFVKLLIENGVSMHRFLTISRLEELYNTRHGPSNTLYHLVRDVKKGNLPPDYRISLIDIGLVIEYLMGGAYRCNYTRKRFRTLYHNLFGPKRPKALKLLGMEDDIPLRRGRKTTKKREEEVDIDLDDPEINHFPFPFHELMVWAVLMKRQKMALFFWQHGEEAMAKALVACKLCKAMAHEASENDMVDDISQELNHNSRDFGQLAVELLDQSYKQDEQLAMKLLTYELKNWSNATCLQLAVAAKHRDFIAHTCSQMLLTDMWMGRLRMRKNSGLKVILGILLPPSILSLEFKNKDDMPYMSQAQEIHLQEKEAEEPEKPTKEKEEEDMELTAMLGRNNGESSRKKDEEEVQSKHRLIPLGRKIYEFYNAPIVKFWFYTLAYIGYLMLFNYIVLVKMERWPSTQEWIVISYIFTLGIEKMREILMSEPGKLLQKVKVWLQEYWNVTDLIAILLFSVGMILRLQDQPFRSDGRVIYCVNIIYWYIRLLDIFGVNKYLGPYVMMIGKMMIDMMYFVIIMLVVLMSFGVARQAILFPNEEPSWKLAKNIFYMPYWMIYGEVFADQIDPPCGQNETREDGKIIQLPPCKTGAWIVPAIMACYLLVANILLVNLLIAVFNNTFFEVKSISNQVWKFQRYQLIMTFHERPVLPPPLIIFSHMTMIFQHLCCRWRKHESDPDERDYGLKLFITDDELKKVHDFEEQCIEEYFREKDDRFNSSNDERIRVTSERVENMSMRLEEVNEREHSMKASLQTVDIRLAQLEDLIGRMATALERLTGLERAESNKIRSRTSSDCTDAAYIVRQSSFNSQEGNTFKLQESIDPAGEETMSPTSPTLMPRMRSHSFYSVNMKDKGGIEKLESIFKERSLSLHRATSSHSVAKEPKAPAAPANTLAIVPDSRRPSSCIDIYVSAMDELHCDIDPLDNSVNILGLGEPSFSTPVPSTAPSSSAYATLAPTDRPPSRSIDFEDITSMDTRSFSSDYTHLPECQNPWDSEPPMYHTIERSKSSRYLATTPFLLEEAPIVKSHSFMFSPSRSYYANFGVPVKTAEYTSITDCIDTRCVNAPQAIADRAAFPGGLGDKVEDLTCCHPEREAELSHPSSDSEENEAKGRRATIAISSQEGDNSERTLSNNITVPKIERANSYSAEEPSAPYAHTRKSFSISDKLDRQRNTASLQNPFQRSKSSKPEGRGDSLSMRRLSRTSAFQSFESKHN
From the text: (§2) To detect a channel activity of the polypeptide consisting of the amino acid sequence of SEQ ID NO: 2, animal cells were transfected with the expression vector pcDNA3.1-MLSN2 obtained in Example 1 to express the polypeptide. The expression vector pcDNA3.1-MLSN2 obtained in Example 1 and reagents for transfection (LIPOFECTAMINE or LIPOFECTAMINE2000; Invitrogen) were used to transform human embryonic kidney derived HEK293 cells (ATCC No.: CRL-1573) and induce the expression of the polypeptide consisting of the amino acid sequence of SEQ ID NO: 2. The cells transfected with LIPOFECTAMINE were used in Examples 4 and 5, and the cells transfected with LIPOFECTAMINE2000 were used in Examples 6, 7, and 16.
(§3) The transformants (4×10^4 cells) obtained in Example 3 were incubated at 37° C. for an hour in the presence of a calcium-sensitive fluorescent reagent (Fluo3-AM; DOJINDO), and the reagent was incorporated into the cells. The cells were washed with a physiological saline to remove the reagent not incorporated. A physiological saline supplemented with PS (final concentration=10 μmol/L) was added to the treated cells, and a time course of fluorescence emitted from the cells was measured using an automated fluorescence detector (FLIPR; Molecular Device). As controls, the same procedures were repeated, except that HEK293 cells transfected with pcDNA3.1(+) (i.e., control cells not expressing the polypeptide of SEQ ID NO: 2) were used, or except that a physiological saline without PS was used.
A screening of compounds (activating agents) capable of activating the polypeptide consisting of the amino acid sequence of SEQ ID NO: 2 was carried out. As an index of activation, a calcium influx into cells was detected by using a calcium-sensitive fluorescent reagent, more particularly, in accordance to the method described in Example 6.

[3] = system: primary cultured neurons derived from the rat hippocampus; experiment: Spontaneous excitatory postsynaptic currents (sEPSCs) by whole-cell patch-clamp in primary cultured neurons; type: cell-based; details: voltage-clamped at −60 mV
From the text: (§4) A pregnant rat was anesthetized with diethyl ether, and the chest (heart) was dissected to sacrifice the rat by exsanguination. An abdomen was opened, and the uterus was dissected. After a fetus was sterilized with rubbing alcohol in a clean bench, the whole brain was dissected and placed in a petri dish containing a culture medium for neurons (SUMILON; Sumitomo Bakelite). The cerebral cortex and the hippocampus were dissected with fine forceps under a stereomicroscope, and transferred to 50-mL tubes independently. Each tube was allowed to stand, to precipitate each tissue, and each supernatant was removed by suction. A solution for cell dissocition [phosphate buffered saline (PBS) supplemented with 1% papain, 150 U/mL DNase I, 0.02% L-cysteine, 0.02% bovine serum albumin (BSA), and 0.5% glucose] was added to each tube, incubated at 37° C. for 15 minutes, and centrifuged (1000 rpm, 4° C., 5 minutes). Each supernatant was removed by suction, and 10 mL of a serum-free medium was added to each tube. The whole in each tube was dispersed by pipetting several times, and cell debris was removed through a filter to obtain each cell suspension.
To confirm the effects of the activating agents on improving the memory, improving learning ability, and/or antidementia, any one of the compounds A, B, C, and D, which were found in Example 16 and can activate the polypeptide consisting of the amino acid sequence of SEQ ID NO: 2, was applied to the neurons to examine an activity of enhancing neurotransmission in the neurons. More particularly, effects of compounds A, B, C, and D on spontaneous excitatory postsynaptic currents (sEPSCs) in primary cultured neurons derived from the rat hippocampus, obtained in Example 13, were examined by a whole-cell patch-clamp method. The sEPSCs is a change of current generated in the neurons, when synaptic vesicles located at the terminus of another cell spontaneously exocytosis a neurotransmitter, and the former cell receives the released neurotransmitter. Therefore, neurotransmission between the neurons can be measured by measuring the sEPSCs (Journal of Neurophysiology, 76, 3159-3168, 1996; The Journal of Neuroscience, 19, 5311-5321, 1999). Further, it is known that the neurotransmission is suppressed by inhibiting the sEPSCs (Journal of Neuroscience Research, 72, 116-124, 2003).
More particularly, the cells (approximately 1×10^5 cells per dish) obtained in Example 13 were plated in a culture dish having a diameter of 35 mm, and cultured for 1 to 5 weeks. As a culture medium, a culture medium for the neurons (SUMILON; Sumitomo Bakelite) was used. Other procedures for cultivation were carried out in accordance with known methods (Methods in Neuroscience vol. 2, Cell culture, P. Michael Conn ed, Academic Press, Inc. 1990). The cell was voltage-clamped at −60 mV by a whole-cell voltage-clamp method, and a whole-cell current generated when PS or each compound was applied was measured (Yasunobu Okada ed., “Shin pacchi kuranpu jikken gijyutsu hou”, Yoshioka shoten, 2001). A solution containing 140 mmol/L NaCl, 5.4 mmol/L KCl, 2 mmol/L CaCl2, 0.8 mmol/L MgCl2, 15 mmol/L glucose, 10 mmol/L HEPES-Na (pH=7.4), 20 μmol/L bicuculline, and 1 μmol/L strychnine was used as an extracellular solution. A solution containing 100 mmol/L potassium gluconate, 10 mmol/L EGTA, 5 mmol/L MgCl2, 2 mmol/L K2ATP, 0.3 mmol/L Na2GTP, and 40 mmol/L HEPES-K (pH=7.25) was used as an intracellular solution.

[4] = target: T1, polypeptide consisting of the amino acid sequence of SEQ ID NO: 2; experiment: Whole-cell voltage-clamp detection of channel activity in transfected HEK293 cells; type: cell-based; details: n=10
From the text: as §2
Each cell obtained in Example 3 was voltage-clamped by a whole-cell voltage-clamp method, and a whole-cell current generated when PS was applied was measured. […]
as §1

[5] = system: HEK cells not expressing the polypeptide of SEQ ID NO: 2; experiment: Calcium influx (Fluo3-AM, FLIPR) in control HEK293 cells; type: cell-based, human; details: for increase in fluorescent intensity: negative control cells
Protocol: as §3
Various compounds were examined, and, as a compound showing an increase in fluorescent intensity, N-[3-(2,6-dichlorophenyl)-5-methylisoxazole-4-yl]-N′-ethyl-N-methyl-N′-phenylurea (code no. SPB 00071; MAYBRIDGE), 3-(2,6-difluorophenyl)-4-(piperidine-1-ylmethyl)-1,3-thiazole-2(3H)-thion (code no. MS 1368; MERLIN), 3-(2,6-difluorophenyl)-4-(pyrrolidine-1-ylmethyl)-1,3-thiazole-2(3H)-thion (code no. MS 1370; MERLIN), and N-(2-acetyl-3-thienyl)-2-[(2-chloro-6-fluorobenzyl)sulfanil]acetamide (code no. GK 00678; Ryan Scientific) (hereinafter referred to as compounds A, B, C, and D, respectively) were found.

[6] = system: primary cultured neurons derived from rat cerebral cortex; experiment: Calcium influx in primary cultured neurons derived from rat cerebral cortex; type: cell-based
From the text: as §4
This example was carried out in accordance with known methods (Yoshihisa Kudo ed., Jikken Igaku, Supplement “Saibo-nai karushiumu jikken purotokoru”, 1996, Youdo-sha), except for the following procedures.
A time course of fluorescence emitted from cells was measured in accordance with the method described in Example 6, except that the primary cultured neurons (4×10^4 cells) derived from the rat brain (cerebral cortex), obtained in Example 13, were cultured for a week and used, and that the final concentration of PS was 10 μmol/L or 50 μmol/L. As a control, a physiological saline without PS was used.
Any one of compounds A, B, C, and D, and PS was applied to primary cultured neurons derived from the rat cerebral cortex obtained in Example 13, and a calcium influx into the neurons was measured. More particularly, the measurement was carried out in accordance with the method described in Example 14, except that the number of cells was 1×10^5 cells.

[7] = final concentration 10 μmol/L, 1×10^5 cells

Compound | whole-cell currents on PS application [1] | memory and learning ability (aged rats) | neurotransmission (acetylcholine release, hippocampal spike frequency, LTP) (hippocampal slices) | increase in fluorescent intensity (calcium influx) ([2]; final concentration 10 μmol/L, immediately after addition) | enhancement of sEPSCs ([3]; 10 μmol/L) | inward current ([4]; PS 100 μmol/L applied extracellularly, holding potential −40 mV) | outward current ([4]; PS applied after washing, holding potential +40 mV) | fluorescent intensity (calcium influx) ([5]; PS 10 μmol/L, HEK293 cells transfected with pcDNA3.1(+)) | increase in fluorescent intensity (calcium influx) ([6]; 10 μmol/L, 4×10^4 cells cultured for a week) | increase in fluorescent intensity (calcium influx) ([6]; 50 μmol/L, 4×10^4 cells cultured for a week) | increase in fluorescent intensity (calcium influx) [6, 7] | EC50 [2] | increase in fluorescent intensity [5] | enhancement of sEPSCs ([3]; 1 μmol/L)
Pregnenolone sulfate [PS, reference compound] | such currents were not observed | the memory and learning ability were improved | enhancement of neurotransmission | approximately 10,000 counts | the enhancement of sEPSCs was similarly detected | −5.8±0.9 | 108.9±19.3 | approximately 0 count | an increase in fluorescent intensity was detected | an increase in fluorescent intensity was detected | an increase in fluorescent intensity was detected |  |  | 
Fc1cccc(F)c1-n1c(CN2CCCCC2)csc1=S [compound B, 3-(2,6-difluorophenyl)-4-(piperidine-1-ylmethyl)-1,3-thiazole-2(3H)-thion] |  |  |  |  | the enhancement of sEPSCs was detected |  |  |  |  |  | an increase in fluorescent intensity was detected | 6.8 µM | such an increase in fluorescent intensity was not detected | 
CCN(C(=O)N(C)c1c(-c2c(Cl)cccc2Cl)noc1C)c1ccccc1 [compound A, N-[3-(2,6-dichlorophenyl)-5-methylisoxazole-4-yl]-N′-ethyl-N-methyl-N′-phenylurea] |  |  |  |  | the enhancement of sEPSCs was detected |  |  |  |  |  | an increase in fluorescent intensity was detected | 9.8 µM | such an increase in fluorescent intensity was not detected | 
Fc1cccc(F)c1-n1c(CN2CCCC2)csc1=S [compound C, 3-(2,6-difluorophenyl)-4-(pyrrolidine-1-ylmethyl)-1,3-thiazole-2(3H)-thion] |  |  |  |  | the enhancement of sEPSCs was detected |  |  |  |  |  | an increase in fluorescent intensity was detected | 1.9 µM | such an increase in fluorescent intensity was not detected | 
CC(=O)c1sccc1NC(=O)CSCc1c(F)cccc1Cl [compound D, N-(2-acetyl-3-thienyl)-2-[(2-chloro-6-fluorobenzyl)sulfanil]acetamide] |  |  |  |  |  |  |  |  |  |  | an increase in fluorescent intensity was detected | 3.5 µM | such an increase in fluorescent intensity was not detected | the enhancement of sEPSCs was detected
